Measured values: publication PMC5870139 (Journal of the American Chemical Society, 2018)

Target: T1, TagT (Bacillus subtilis, UniProt Q7WY78)
T1 sequence (Q7WY78 1-322): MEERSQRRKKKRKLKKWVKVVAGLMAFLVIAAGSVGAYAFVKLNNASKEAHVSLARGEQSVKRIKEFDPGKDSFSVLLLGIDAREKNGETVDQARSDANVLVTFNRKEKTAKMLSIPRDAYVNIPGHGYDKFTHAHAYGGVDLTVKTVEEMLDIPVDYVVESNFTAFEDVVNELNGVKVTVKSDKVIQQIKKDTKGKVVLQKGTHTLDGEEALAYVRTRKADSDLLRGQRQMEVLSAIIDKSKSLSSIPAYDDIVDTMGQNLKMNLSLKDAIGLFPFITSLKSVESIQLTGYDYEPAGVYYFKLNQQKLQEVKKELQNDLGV
Experiment: transfer of radiolabelled WTA precursor, PAGE autoradiography
Type: biochemical
Details: acceptor; co-substrate LIIA^WTA

Structure (SMILES)	transfer of radiolabelled WTA precursor, PAGE autoradiography
CC(=O)N[C@H]1[C@H](O[C@H]2[C@H](O)[C@@H](NC(C)=O)[C@H](O[C@H]3[C@H](O)[C@@H](NC(C)=O)C(O)O[C@@H]3CO)O[C@@H]2CO)O[C@H](CO)[C@@H](O[C@@H]2O[C@H](CO)[C@@H](O[C@@H]3O[C@H](CO)[C@@H](O)[C@H](O)[C@H]3NC(C)=O)[C@H](O)[C@H]2NC(C)=O)[C@@H]1O (some centres unmarked) [n=3, chitin oligosaccharide containing five GlcNAcs]	LcpB and TagT transferred WTA onto chitin oligosaccharides containing five or more sugars
CC(=O)N[C@H]1[C@H](O[C@H]2[C@H](O)[C@@H](NC(C)=O)C(O[C@H]3[C@H](O)[C@@H](NC(C)=O)C(O[C@H]4[C@H](O)[C@@H](NC(C)=O)C(O[C@H]5[C@H](O)[C@@H](NC(C)=O)C(O[C@H]6[C@H](O)[C@@H](NC(C)=O)C(O)O[C@@H]6CO)O[C@@H]5CO)O[C@@H]4CO)O[C@@H]3CO)O[C@@H]2CO)O[C@H](CO)[C@@H](O)[C@@H]1O (some centres unmarked) [n=4, chitin oligosaccharide containing six GlcNAcs]	LcpB and TagT transferred WTA onto chitin oligosaccharides containing five or more sugars
